Source: US20070105837A1, “Novel derivatives of 4a,5,9,10,11,12-hexahydrobenzofuro[3a,3,2][2]-benzazepine, method for the production thereof and use thereof in the production of medicaments” (priority 2003, published 2007)

Columns and labels:
butyrylcholinesterase = butyrylcholinesterase (Homo sapiens, UniProt P06276); experiment: biochemical; conditions: read-out: Butyrylcholinesterase IC-50
acetylcholinesterase = acetylcholinesterase (Homo sapiens, UniProt P22303); experiment: biochemical; conditions: read-out: Acetylcholinesterase IC-50
acetylcholinesterase, sequence (P22303 32-614, species assumed): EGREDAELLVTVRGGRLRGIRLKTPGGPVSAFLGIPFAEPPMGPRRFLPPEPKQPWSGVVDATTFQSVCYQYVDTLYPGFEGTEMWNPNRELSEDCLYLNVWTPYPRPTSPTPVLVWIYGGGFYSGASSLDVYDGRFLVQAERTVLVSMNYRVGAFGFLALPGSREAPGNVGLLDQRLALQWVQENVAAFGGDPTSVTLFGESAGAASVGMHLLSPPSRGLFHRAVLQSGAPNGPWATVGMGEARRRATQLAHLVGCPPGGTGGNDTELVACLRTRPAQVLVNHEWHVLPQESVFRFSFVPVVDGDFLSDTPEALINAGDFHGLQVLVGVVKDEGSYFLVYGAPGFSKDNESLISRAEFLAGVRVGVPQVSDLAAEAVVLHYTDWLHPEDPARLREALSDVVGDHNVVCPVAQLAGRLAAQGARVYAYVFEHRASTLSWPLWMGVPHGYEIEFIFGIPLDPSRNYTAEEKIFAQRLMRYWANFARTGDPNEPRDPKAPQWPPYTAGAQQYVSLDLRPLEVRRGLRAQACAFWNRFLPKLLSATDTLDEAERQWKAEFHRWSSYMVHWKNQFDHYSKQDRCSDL

butyrylcholinesterase, sequence (P06276 29-602): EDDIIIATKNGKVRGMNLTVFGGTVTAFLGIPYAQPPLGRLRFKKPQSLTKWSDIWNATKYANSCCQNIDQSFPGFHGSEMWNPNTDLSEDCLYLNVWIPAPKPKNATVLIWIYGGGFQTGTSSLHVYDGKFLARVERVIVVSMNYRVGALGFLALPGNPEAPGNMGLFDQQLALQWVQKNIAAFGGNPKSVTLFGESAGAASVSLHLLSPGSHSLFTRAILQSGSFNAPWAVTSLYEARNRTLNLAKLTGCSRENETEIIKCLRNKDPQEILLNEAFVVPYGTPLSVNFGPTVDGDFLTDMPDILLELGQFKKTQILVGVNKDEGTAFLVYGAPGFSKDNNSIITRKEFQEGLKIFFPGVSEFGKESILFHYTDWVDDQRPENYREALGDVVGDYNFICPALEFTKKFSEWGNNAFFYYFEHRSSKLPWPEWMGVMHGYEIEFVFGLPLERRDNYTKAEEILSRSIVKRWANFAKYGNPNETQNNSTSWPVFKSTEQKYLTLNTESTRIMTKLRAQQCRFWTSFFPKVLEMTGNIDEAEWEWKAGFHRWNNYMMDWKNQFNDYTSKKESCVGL

Row | Structure (SMILES) | IC50 (butyrylcholinesterase) [µM] | IC50 (acetylcholinesterase) [µM]
1 | COc1ccc2c3c1O[C@H]1C=C(C)C=C[C@@]31CCN(C)C2 [Example 60, (4aS,8aS)-D5,6--4a,5,9,10,11,12-hexahydro-6,11-dimethyl-3-methoxy-6H-[1]benzofuro[3a,3,2-ef][2]benzazepine] | 200 | 80
2 | COc1ccc2c3c1O[C@H]1C=C(C(C)C)C=C[C@@]31CCN(C)C2 [Example 61, (4aS,8aS)-D5,6-4a,5,9,10,11,12-hexahydro-6-(isopropyl)-11-methyl-3-methoxy-6H-[1]benzofuro [3a,3,2-ef][2]benzazepine] | 9 | > 100
